Assay results as given in paper PMC8112869, “Therapeutic inhibition of keratinocyte TRPV3 sensory channel by local anesthetic dyclonine” (eLife, 2021).

Molecular target: T1, endogenous TRPV3 channels in mouse keratinocytes (Mus musculus, UniProt Q8K424)
T1 construct: endogenous in cells; host or cells: primary epidermal keratinocytes of newborn WT C57B/6 mice
T1 sequence (Q8K424 1-791): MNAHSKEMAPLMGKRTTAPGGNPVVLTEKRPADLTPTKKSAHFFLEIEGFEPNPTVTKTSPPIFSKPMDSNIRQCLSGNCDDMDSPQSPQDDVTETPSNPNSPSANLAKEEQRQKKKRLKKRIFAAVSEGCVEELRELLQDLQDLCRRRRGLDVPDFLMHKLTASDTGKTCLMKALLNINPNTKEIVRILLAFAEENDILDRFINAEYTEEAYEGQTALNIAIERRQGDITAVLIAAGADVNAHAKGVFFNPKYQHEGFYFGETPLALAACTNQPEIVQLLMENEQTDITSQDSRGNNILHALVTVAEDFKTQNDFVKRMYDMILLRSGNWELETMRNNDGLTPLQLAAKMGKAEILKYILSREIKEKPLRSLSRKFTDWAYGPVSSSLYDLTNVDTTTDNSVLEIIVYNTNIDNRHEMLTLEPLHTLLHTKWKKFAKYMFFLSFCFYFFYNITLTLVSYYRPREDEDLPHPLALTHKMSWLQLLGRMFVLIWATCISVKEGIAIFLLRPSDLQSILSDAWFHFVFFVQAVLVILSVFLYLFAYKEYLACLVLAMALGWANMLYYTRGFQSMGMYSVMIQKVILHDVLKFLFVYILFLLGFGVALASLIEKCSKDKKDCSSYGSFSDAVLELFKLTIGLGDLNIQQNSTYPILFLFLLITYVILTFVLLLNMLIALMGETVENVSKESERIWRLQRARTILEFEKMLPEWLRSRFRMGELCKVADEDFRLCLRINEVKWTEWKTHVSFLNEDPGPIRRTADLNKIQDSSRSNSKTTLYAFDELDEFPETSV
Experiment: Whole-cell recording of 2-APB-evoked TRPV3 currents in primary mouse epidermal keratinocytes
Assay type: cell-based
Settings: for TRPV3 currents, of control level: 300 μM 2-APB, –60 mV
Description: The animal protocol used in this study was approved by the Institutional Animal Care and Use Committee of Wuhan University. Primary mouse keratinocytes were prepared according to the method previously described ([Luo et al., 2012]; [Pirrone et al., 2005]). Briefly, newborn WT C57B/6 mice (postnatal days 1–3) were deeply anaesthetized and decapitated and then soaked in 10% povidone-iodine, 70% ethanol, and phosphate-buffered saline (PBS) for 5 min, respectively. The skin on the back was removed and rinsed with pre-cold sterile PBS in a 100 mm Petri dish and transferred into a 2 ml tube filled with pre-cold digestion buffer containing 4 mg/ml dispase II and incubated overnight at 4°C. After treatment with dispase II for 12–18 hr, the epidermis was gently peeled off from dermis and collected. Keratinocytes were dispersed by gentle scraping and flushing with KC growth medium (Invitrogen). The resulting suspension of single cells was collected by centrifuge, and cells were seeded onto coverslips pre-coated with poly-L-lysine and maintained in complete keratinocyte serum-free growth medium (Invitrogen). Cell culture medium was refreshed every two days. Patch-clamp recordings were carried out 48 hr after plating.
Conventional whole-cell and excised patch-clamp recording methods were used. For the recombinant expressing system, green fluorescent EGFP was used as a surface marker for gene expression. Recording pipettes were pulled from borosilicate glass capillaries (World Precision Instruments) and fire-polished to a resistance between 2 and 4 MΩ when filled with internal solution containing (in mM) 140 CsCl, 2.0 MgCl2, 5 EGTA, and 10 HEPES, pH 7.4 (adjusted with CsOH). Bath solution contained (in mM): 140 NaCl, 5 KCl, 3 EGTA, and 10 HEPES, pH 7.4 adjusted with NaOH. For recordings in keratinocytes, the bath saline consisted of (in mM) 140 NaCl, 5 KCl, 2 MgCl2, 2 CaCl2, 10 glucoses, and 10 HEPES, pH 7.4 adjusted with NaOH, and the pipette solution contained (in mM) 140 CsCl, 5 EGTA, and 10 HEPES, pH 7.3 adjusted with CsOH. For single-channel recordings, the pipette solution and bath solution were symmetrical and contained (in mM) 140 NaCl, 5 KCl, 3 EGTA, and 10 HEPES, pH 7.4. Isolated cells were voltage clamped and held at –60 mV using an EPC10 amplifier with the Patchmaster software (HEKAElectronics, Lambrecht, Germany). For a subset of recordings, currents were amplified using an Axopatch 200B amplifier (Molecular Devices, Sunnyvale, CA) and recorded through a BNC-2090/MIO acquisition system (National Instruments, Austin, TX) using QStudio developed by Dr. Feng Qin at State University of New York at Buffalo. […] As determined by the conductance tests, the solution around a patch under study was fully controlled by the application of a flow rate of 100 μl/min or greater. […]

**Q.** For `CCCCOc1ccc(C(=O)CCN2CCCCC2)cc1` [dyclonine], which “TRPV3 currents, of control level” value (5 μM dyclonine) is on record?
**A.** 52% ± 7%

**Q.** What about the “TRPV3 currents, of control level” value (30 μM dyclonine) of the same compound?
**A.** 13% ± 0.01%

**Q.** And the IC50 (300 μM 2-APB-evoked, read-out: IC50 on TRPV3 currents in cultured keratinocytes)?
**A.** 5.2 ± 0.71 µM

**Q.** What about the “Hill coefficient nH” value (keratinocytes) of the same compound?
**A.** 2.4 ± 0.75
